Assay results reported in PMC10620772, “Design, synthesis, and biological evaluation of new pyrimidine-5-carbonitrile derivatives as novel anti-cancer, dual EGFR^WT/COX-2 inhibitors with docking studies” (RSC Advances, 2023).

Tests used:
Format in all cases: cell-based, human
UACC-257 = experiment: NCI60 antitumor screening; settings: for inhibition at 10 µM: Homo sapiens, 10 μM single dose, UACC-257 (melanoma), read-out: growth inhibition percent (GI%)
ACHN = experiment: NCI60 antitumor screening; settings: for inhibition at 10 µM: Homo sapiens, 10 μM single dose, ACHN (renal cancer), read-out: growth inhibition percent (GI%)
RXF 393 = experiment: NCI60 antitumor screening; settings: for inhibition at 10 µM: Homo sapiens, 10 μM single dose, RXF 393 (renal cancer), read-out: growth inhibition percent (GI%); for GI%: 10 μM one-dose
LOX IMVI = experiment: NCI60 antitumor screening; settings: for inhibition at 10 µM: Homo sapiens, 10 μM single dose, LOX IMVI (melanoma), read-out: growth inhibition percent (GI%)
NCI/ADR-RES = experiment: NCI60 antitumor screening; settings: for inhibition at 10 µM: Homo sapiens, 10 μM single dose, NCI/ADR-RES (ovarian cancer), read-out: growth inhibition percent (GI%)
SF-268 = experiment: NCI60 antitumor screening; settings: for inhibition at 10 µM: Homo sapiens, 10 μM single dose, SF-268 (CNS cancer), read-out: growth inhibition percent (GI%)
SK-MEL-5 = experiment: NCI60 antitumor screening; settings: for inhibition at 10 µM: Homo sapiens, 10 μM single dose, SK-MEL-5 (melanoma), read-out: growth inhibition percent (GI%)
OVCAR-8 = experiment: NCI60 antitumor screening; settings: for inhibition at 10 µM: Homo sapiens, 10 μM single dose, OVCAR-8 (ovarian cancer), read-out: growth inhibition percent (GI%)
SNB-19 = experiment: NCI60 antitumor screening; settings: for inhibition at 10 µM: Homo sapiens, 10 μM single dose, SNB-19 (CNS cancer), read-out: growth inhibition percent (GI%)
TK-10 = experiment: NCI60 antitumor screening; settings: for inhibition at 10 µM: Homo sapiens, 10 μM single dose, TK-10 (renal cancer), read-out: growth inhibition percent (GI%)
SR = experiment: NCI60 antitumor screening; settings: for inhibition at 10 µM: Homo sapiens, 10 μM single dose, SR (leukaemia), read-out: growth inhibition percent (GI%)
COLO 205 = experiment: NCI60 antitumor screening; settings: for inhibition at 10 µM: Homo sapiens, 10 μM single dose, COLO 205 (colon cancer), read-out: growth inhibition percent (GI%)
SK-OV-3 = experiment: NCI60 antitumor screening; settings: for inhibition at 10 µM: Homo sapiens, 10 μM single dose, SK-OV-3 (ovarian cancer), read-out: growth inhibition percent (GI%)
MDA-MB-231/ATCC = experiment: NCI60 antitumor screening; settings: for inhibition at 10 µM: Homo sapiens, 10 μM single dose, MDA-MB-231/ATCC (breast cancer), read-out: growth inhibition percent (GI%)
SF-539 = experiment: NCI60 antitumor screening; settings: for inhibition at 10 µM: Homo sapiens, 10 μM single dose, SF-539 (CNS cancer), read-out: growth inhibition percent (GI%); for GI%: 10 μM one-dose
SK-MEL-28 = experiment: NCI60 antitumor screening; settings: for inhibition at 10 µM: Homo sapiens, 10 μM single dose, SK-MEL-28 (melanoma), read-out: growth inhibition percent (GI%)
NCI-H322M = experiment: NCI60 antitumor screening; settings: for inhibition at 10 µM: Homo sapiens, 10 μM single dose, NCI-H322M (non-small cell lung cancer), read-out: growth inhibition percent (GI%)
NCI60 cell lines panel = experiment: NCI60 antitumor screening, full panel; settings: for One-dose activity over the NCI60 panel: 10 μM; for inhibition at 10 µM: Homo sapiens, 10 μM single dose, mean over NCI60 cell lines, read-out: Mean growth inhibition percent (GI%)
In short: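 Percent growth inhibition (GI%) was recorded for each of the NCI60 lines, spanning leukaemia, lung, colon, CNS, melanoma, ovarian, renal, prostate and breast cancers, after exposure to compounds at one concentration, 10 μM.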

A498 = experiment: NCI60 antitumor screening; settings: for inhibition at 10 µM: Homo sapiens, 10 μM single dose, A498 (renal cancer), read-out: growth inhibition percent (GI%)
HL-60(TB) = experiment: NCI60 antitumor screening; settings: for inhibition at 10 µM: Homo sapiens, 10 μM single dose, HL-60(TB) (leukaemia), read-out: growth inhibition percent (GI%)
MCF7 = experiment: NCI60 antitumor screening; settings: for inhibition at 10 µM: Homo sapiens, 10 μM single dose, MCF7 (breast cancer), read-out: growth inhibition percent (GI%)
CAKI-1 = experiment: NCI60 antitumor screening; settings: for inhibition at 10 µM: Homo sapiens, 10 μM single dose, CAKI-1 (renal cancer), read-out: growth inhibition percent (GI%)

Cc1ccc(CSc2nc(-c3ccc(F)cc3)c(C#N)c(N3CCN(C)CC3)n2)cc1 [4l, 4-(4-Fluorophenyl)-2-((4-methylbenzyl)thio)-6-(4-methylpiperazin-1-yl) pyrimidine-5-carbonitrile]
inhibition at 10 µM (UACC-257): < 10%
inhibition at 10 µM (ACHN): 29.9%
inhibition at 10 µM (RXF 393): 42.4%
inhibition at 10 µM (LOX IMVI): 12.8%
inhibition at 10 µM (NCI/ADR-RES): 12.7%
inhibition at 10 µM (SF-268): < 10%
inhibition at 10 µM (SK-MEL-5): < 10%
inhibition at 10 µM (OVCAR-8): 11.9%
inhibition at 10 µM (SNB-19): 14.3%
inhibition at 10 µM (TK-10): < 10%
inhibition at 10 µM (SR): < 10%
inhibition at 10 µM (COLO 205): < 10%
inhibition at 10 µM (SK-OV-3): < 10%
inhibition at 10 µM (MDA-MB-231/ATCC): 28.9%
inhibition at 10 µM (SF-539): 31.8%
inhibition at 10 µM (SK-MEL-28): < 10%
inhibition at 10 µM (NCI-H322M): 18%
One-dose activity over the NCI60 panel (NCI60 cell lines panel): moderate activity against numerous cell lines
inhibition at 10 µM (NCI60 cell lines panel): 11.2%
inhibition at 10 µM (A498): < 10%
inhibition at 10 µM (HL-60(TB)): 12.2%
inhibition at 10 µM (MCF7): 12.8%
inhibition at 10 µM (CAKI-1): 36.9%

Cc1ccc(CSc2nc(-c3ccc(F)cc3)c(C#N)c(N3CCNCC3)n2)cc1 [4h, 4-(4-Fluorophenyl)-2-((4-methylbenzyl)thio)-6-(piperazin-1-yl)pyrimidine-5-carbonitrile]
inhibition at 10 µM (UACC-257): < 10%
inhibition at 10 µM (ACHN): < 10%
inhibition at 10 µM (RXF 393): < 10%
inhibition at 10 µM (LOX IMVI): < 10%
inhibition at 10 µM (NCI/ADR-RES): < 10%
inhibition at 10 µM (SF-268): < 10%
inhibition at 10 µM (SK-MEL-5): < 10%
inhibition at 10 µM (OVCAR-8): < 10%
inhibition at 10 µM (SNB-19): < 10%
inhibition at 10 µM (TK-10): < 10%
inhibition at 10 µM (SR): < 10%
inhibition at 10 µM (COLO 205): < 10%
inhibition at 10 µM (SK-OV-3): < 10%
inhibition at 10 µM (MDA-MB-231/ATCC): < 10%
inhibition at 10 µM (SF-539): < 10%
inhibition at 10 µM (SK-MEL-28): < 10%
inhibition at 10 µM (NCI-H322M): < 10%
One-dose activity over the NCI60 panel (NCI60 cell lines panel): inactive
inhibition at 10 µM (NCI60 cell lines panel): < 10%
inhibition at 10 µM (A498): < 10%
inhibition at 10 µM (HL-60(TB)): < 10%
inhibition at 10 µM (MCF7): < 10%
inhibition at 10 µM (CAKI-1): 11.7%

CN1CCN(c2nc(SCc3ccc([N+](=O)[O-])cc3)nc(-c3ccc(F)cc3)c2C#N)CC1 [4k, 4-(4-Fluorophenyl)-6-(4-methylpiperazin-1-yl)-2-((4-nitrobenzyl)thio)pyrimidine-5-carbonitrile]
inhibition at 10 µM (UACC-257): < 10%
inhibition at 10 µM (ACHN): 31.5%
inhibition at 10 µM (RXF 393): 68.5%
inhibition at 10 µM (LOX IMVI): 20.9%
inhibition at 10 µM (NCI/ADR-RES): 25.1%
inhibition at 10 µM (SF-268): < 10%
inhibition at 10 µM (SK-MEL-5): 16.4%
inhibition at 10 µM (OVCAR-8): 11.7%
inhibition at 10 µM (SNB-19): 29.6%
inhibition at 10 µM (TK-10): < 10%
inhibition at 10 µM (SR): < 10%
inhibition at 10 µM (COLO 205): < 10%
inhibition at 10 µM (SK-OV-3): 20.9%
inhibition at 10 µM (MDA-MB-231/ATCC): 35.1%
inhibition at 10 µM (SF-539): 41%
inhibition at 10 µM (SK-MEL-28): 14.4%
inhibition at 10 µM (NCI-H322M): 26.3%
One-dose activity over the NCI60 panel (NCI60 cell lines panel): moderate activity against numerous cell lines
inhibition at 10 µM (NCI60 cell lines panel): 17.5%
inhibition at 10 µM (A498): < 10%
inhibition at 10 µM (HL-60(TB)): < 10%
inhibition at 10 µM (MCF7): 17.6%
inhibition at 10 µM (CAKI-1): 34.8%

Cc1ccc(CSc2nc(-c3ccc(F)cc3)c(C#N)c(N3CCOCC3)n2)cc1 [4d, 4-(4-Fluorophenyl)-2-((4-methylbenzyl)thio)-6-morpholinopyrimidine-5-carbonitrile]
GI% (UACC-257; 10 μM one-dose): 17.42%
GI% (ACHN; 10 μM one-dose): 37.30%
GI% (RXF 393): 48.96%
GI% (RXF 393; Table 1): — (GI value > 70%)
GI% (LOX IMVI; 10 μM one-dose): 11.10%
GI% (NCI/ADR-RES; 10 μM one-dose): — (GI% < 10)
GI% (SF-268; 10 μM one-dose): 22.32%
GI% (SK-MEL-5; 10 μM one-dose): 10.99%
GI% (OVCAR-8; 10 μM one-dose): 23.86%
GI% (SNB-19; 10 μM one-dose): 44.48%
GI% (TK-10; 10 μM one-dose): — (GI% < 10)
GI% (SR; 10 μM one-dose, Table 1): — (GI value > 70%)
GI% (COLO 205; 10 μM one-dose): — (GI% < 10)
GI% (SK-OV-3; 10 μM one-dose): 11.69%
GI% (MDA-MB-231/ATCC; 10 μM one-dose): 31.92%
GI% (SF-539): 32.27%
GI% (SF-539; Table 1): — (GI value > 70%)
GI% (SK-MEL-28; 10 μM one-dose): — (GI% < 10)
GI% (NCI-H322M; 10 μM one-dose): — (GI% < 10)
Mean GI% (NCI60 cell lines panel; 10 μM one-dose, mean over NCI60): 14.01%
GI% (A498; 10 μM one-dose): — (GI% < 10)
GI% (HL-60(TB); 10 μM one-dose): — (GI% < 10)
GI% (MCF7; 10 μM one-dose): 11.76%
GI% (CAKI-1; 10 μM one-dose): 44.00%
